Data reported in article PMC9685055, “Biological activity of new bioactive steroids deriving from biotransformation of cortisone” (Microbial Cell Factories, 2022).

Tests used:
[1] = tested on: IL-8 gene expression in TNFα-stimulated HaCaT cells; assay: TNFα-induced IL-8 gene expression, real-time PCR; assay type: cell-based; settings: 10 μM pretreatment 24 h, then 10 ng/mL TNFα 1 h
Protocol: (§1) HaCaT cells were cultured with Dulbecco’s modified Eagle’s medium High Glucose (Lonza, Milan, Italy) supplemented with 10% FBS, 100 U/mL penicillin, 100 μg/mL streptomycin and 2 mM L-glutamine as previously described. Cells were maintained in a humidified incubator at 37 °C with 5% CO2 and incubated until the monolayer was 80% confluent. Medium was changed every 2 days.
(§2) HaCaT cells were pretreated with or without 10 μM of both SCA and SCB for 24 h. Stock solutions of the two compounds were prepared in DMSO immediately before use and diluted to the final concentration in the culture medium. In some sets of experiments, betamethasone-17-valerate (10 µg/mL) served as a positive control; dimethyl sulfoxide (DMSO) served as a solvent control. After the pretreatments, cells were stimulated with 10 ng/mL TNFα for 1 h to induce the NFκB signaling pathway. Then, media were replaced with fresh culture medium. Cells and supernatants were collected at different time points for each set of experiments as described below.
Quantitative real-time PCR was carried out as described in detail previously. Briefly, HaCaT cells were treated as indicated above and harvested for RNA extraction 3 h after the end of the proinflammatory stimulus with TNFα. […] Quantitative real-time PCR (qPCR) was performed using SYBR green on the CFX Multicolor real-time PCR detection system (Bio-Rad, Italy). […]

[2] = DPPH radical scavenging assay; settings: 0.1 mg/mL; Trolox equivalents
Protocol: The DPPH assay was evaluated according to Aadil (2013) and Bonetti (2016). Fifty microliters of samples (cortisone, SCA and SCB) were added to […] of 0.06 mM of methanolic DPPH· radical solution. The reaction mixture was left to stand at room temperature in the dark for 15 min. The absorbance for the sample (Asample) was measured at 515 nm against methanol blank. A control was the absorbance of DPPH· solution.
Methanolic solutions with different Trolox concentrations (0.05 − 1 mM/L) were analyzed for calibration curve. The free radical scavenging capacity was expressed as micromolar of Trolox equivalents (TEs)/g of SCA and SCB compounds using calibration curve.

[3] = tested on: p65 NF-κB nuclear translocation in HaCaT cells; assay: TNFα-induced p65 NF-κB nuclear translocation, immunofluorescence; assay type: cell-based; settings: 10 μM pretreatment 24 h, then 10 ng/mL TNFα 1 h
Protocol: as §1, §2
Briefly, HaCaT cells were seeded on coverslips at a density of 1 × 10^5 cell/mL and incubated with DMEM high glucose supplemented with FBS 10%. Then, HaCaT cells were treated as indicated above. At the end of the proinflammatory stimulus with TNFα, cells were fixed in 4% paraformaldehyde in PBS for 30 min at 4 °C as previously described. HaCaT cells were permeabilized for 5 min at RT with PBS containing 0.2% Triton X-100. After the blocking with 1% BSA in PBS at RT for 1 h, HaCaT cells were incubated with p65 NF-κB primary antibody (1:100, sc-372; Santa Cruz Biotechnology, Inc., Dallas, Texas, USA) in PBS containing 0.5% BSA at 4 °C overnight. After washing, coverslips were incubated with appropriate secondary antibody for 1 h at RT. Nuclei were stained with 1 μg/mL DAPI (Sigma- Aldrich, Italy) for 1 min. […] Fluorescence was examined using an Epifluorescence microscope (Nikon Eclipse E800; Nikon Corporation, Surrey, UK) equipped with a plan apochromat 100 × 0.5 − 1.3 oil immersion objective and a mercury lamp source.

Row | SMILES | effect on TNFα-triggered IL-8 mRNA upregulation [1] | DPPH radical scavenging activity (in words) [2] | effect on TNFα-stimulated translocation of p65 to the nucleus [3]
1 | Cc1ccc(O)c2c1CCC1C3CC[C@](O)(C(=O)CO)[C@@]3(C)CC(=O)[C@@]21O (stereo partly drawn) [SCA, 1,9β,17,21‐tetrahydoxy‐4‐methyl‐19‐nor‐9β‐pregna‐1,3,5(10)‐trien‐11,20‐dione] | completely abolish | high antioxidant property compared with the cortisone precursor | barely affected
2 | Cc1ccc(O)c2c1CCC1C3CC[C@](O)([C@H](O)CO)[C@@]3(C)CC(=O)[C@@]21O (stereo partly drawn) [SCB, 1,9β,17,20β,21‐ pentahydoxy‐4‐methyl‐19‐nor‐9β‐pregna‐1,3,5(10)‐trien‐11‐one] | completely abolish | high antioxidant property compared with the cortisone precursor | showed the ability in counteracting the proinflammatory stimulus
